The values that follow are results of earlier work, collected in patent publication US20040131694A1, “Pharmaceutical composition for the medical treatment of the benign prostatic hyperplasia, its preparation method and its therapeutic application” (H.P.B. S.A., priority 2002, published 2004).

This series relates to Bladder outlet obstruction due to Benign Prostatic Hyperplasia.
Setting [1] is: Up to 24 weaks of treatment, Tammela and Kontturi 1993.

Regarding `CC(C)(C)NC(=O)[C@H]1CC[C@H]2[C@@H]3CC[C@H]4NC(=O)C=C[C@]4(C)[C@H]3CC[C@]12C` [Finasteride], under setting [1], the Daytime frequency is 1.4, the Dysuria is 0.4, the Hesitancy is 0.5 and the Intermittence is 0.7. Under setting [1], the Nocturia is given as 1.5, the “Prostatic specific antigen (ng. %)” value is on record as 2.9 ng. %, the “Prostatic volume (grs.)” value was 35 gr and the “Q max.” value was 10.3 mL/s. Also, under setting [1], the “Residual urine volume (ml.)” value is reported as 76 cc, the “Sensation of incomplete Voiding” value was 0.9, the Terminal dribbling was 0.4 and the “Total points (I-PSS)” value is 7.1 points. Also, under setting [1], the Urgency was 0.7 and the Weak stream is given as 0.6. In addition, the Residual effect entry (treatment must be continuous) is listed as “none”.
